We go through 30 molecules from patent US9493441B2, “Acyclic cyanoethylpyrazoles as janus kinase inhibitors” (Merck Sharp & Dohme Corp., priority 2011, dated 2016).

SMILES strings stand for the structures. Like-named read-outs stand apart in the source and are kept apart here.

For one experiment, the target named is JAK1 (Homo sapiens (Human), UniProt P23458). As to the kind of experiment: Jak biochemical HTRF assay, JAK1.
Another experiment has as its target JAK2 (Homo sapiens (Human), UniProt O60674). As to the kind of experiment: Jak biochemical HTRF assay, JAK2. Background: In TR-FRET formats the signal depends on donor and acceptor labels being close together.
Where [1] appears, read: JAK1 IC50 (nM), recombinant GST-tagged catalytic domain, [ATP] 31.8 μM.
Setting [2] is: JAK2 IC50 (nM), recombinant GST-tagged catalytic domain, [ATP] […].
[3] abbreviates: read-out: JAK1 IC50, recombinant GST-tagged catalytic domain, [ATP] 31.8 μM.
Where [4] appears, read: read-out: JAK2 IC50, recombinant GST-tagged catalytic domain, [ATP] […].

The IC50 is the concentration needed to halve the response being measured.

JAK1, sequence (P23458 875-1153): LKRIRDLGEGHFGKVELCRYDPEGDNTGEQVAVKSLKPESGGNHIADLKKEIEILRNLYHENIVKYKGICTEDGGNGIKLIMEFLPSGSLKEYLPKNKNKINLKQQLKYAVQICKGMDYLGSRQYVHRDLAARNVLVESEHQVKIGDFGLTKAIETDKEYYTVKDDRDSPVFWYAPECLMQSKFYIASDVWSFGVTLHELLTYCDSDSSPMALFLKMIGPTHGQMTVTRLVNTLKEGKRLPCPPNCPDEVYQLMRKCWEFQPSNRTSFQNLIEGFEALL
JAK2, sequence (O60674 849-1124): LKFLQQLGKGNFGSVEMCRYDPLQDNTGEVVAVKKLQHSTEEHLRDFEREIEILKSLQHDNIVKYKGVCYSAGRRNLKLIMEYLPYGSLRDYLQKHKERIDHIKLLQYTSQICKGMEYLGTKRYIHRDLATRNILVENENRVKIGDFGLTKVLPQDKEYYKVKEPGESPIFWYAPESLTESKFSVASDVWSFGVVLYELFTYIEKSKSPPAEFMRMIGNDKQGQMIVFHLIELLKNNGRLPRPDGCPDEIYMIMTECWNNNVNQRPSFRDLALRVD

In the case of `CS(=O)(=O)CCOC(=O)N1CCC(C(CC#N)n2cc(C(N)=O)c(Nc3ccc(F)cc3)n2)CC1` (stereo not drawn) [Example 11-3, 2-(methylsulfonyl)ethyl 4-(1-{4-carbamoyl-3-[(4-fluorophenyl)amino]-1H-pyrazol-1-yl}-2-cyanoethyl)piperidine-1-carboxylate], the IC50 came to 122 nM at JAK1 (setting [1]) and 1500 nM at JAK2 (setting [2]).

In the case of `Cc1noc(-c2ccc(Nc3nn([C@H](CC#N)C4CC4)cc3C(N)=O)cc2)n1` (single isomer, unassigned) [Example 18-1, 1-[(1R or 1S)-2-cyano-1-cyclopropylethyl]-3-{[4-(3-methyl-1,2,4-oxadiazol-5-yl)phenyl]amino}-1H-pyrazole-4-carboxamide], the IC50 at JAK1 (setting [3]) came out at 2 nM; on JAK2 (setting [4]), 19 nM.

For `N#CCC(C1CC1)n1cc(C(N)=O)c(Nc2ccc(N3CCOCC3)cc2)n1` (stereo not drawn) [Example 4-17, 1-(2-cyano-1-cyclopropylethyl)-3-[(4-morpholin-4-ylphenyl)amino]-1H-pyrazole-4-carboxamide], the figures for the IC50 at JAK1 (setting [1]) and on JAK2 (setting [2]) were 13 nM and 43 nM, respectively.

As for `CN1C(=O)c2ccc(Nc3nn(C(CC#N)C4CC4)cc3C(N)=O)cc2C1(C)C` (stereo not drawn) [Example 4-30, 1-(2-cyano-1-cyclopropylethyl)-3-[(2,3,3-trimethyl-1-oxo-2,3-dihydro-1H-isoindol-5-yl)amino]-1H-pyrazole-4-carboxamide], the results for the 50% inhibitory concentration (IC50) at JAK1 (setting [1]) and at JAK2 (setting [2]) were 15 nM and 226 nM, respectively.

As to `N#CCC(C1CC1)n1cc(C(N)=O)c(Nc2cccc(C(F)(F)F)c2)n1` (stereo not drawn) [Example 4-4, 1-(2-cyano-1-cyclopropylethyl)-3-{[3-(trifluoromethyl)phenyl]amino}-1H-pyrazole-4-carboxamide], the IC50 on JAK1 (setting [1]) was determined as 82 nM; at JAK2 (setting [2]), 394 nM.

For the molecule `COC(=O)N1CCC(C(CC#N)n2cc(C(N)=O)c(Nc3ccc(F)cc3)n2)CC1` (stereo not drawn) [Example 11-2, methyl 4-(1-{4-carbamoyl-3-[(4-fluorophenyl)amino]-1H-pyrazol-1-yl}-2-cyanoethyl)piperidine-1-carboxylate], the results for the IC50 at JAK1 (setting [1]) and at JAK2 (setting [2]) were 55 nM and 890 nM, respectively.

Consider `N#CC[C@@H](C1CCN(C(=O)OC2COC2)CC1)n1cc(C(N)=O)c(Nc2ccc(F)cc2)n1` [Example 11-4, oxetan-3-yl 4-[(1S)-1-{4-carbamoyl-3-[(4-fluorophenyl)amino]-1H-pyrazol-1-yl}-2-cyanoethyl]piperidine-1-carboxylate], for which the IC50 was 52 nM at JAK1 (setting [1]) and 861 nM at JAK2 (setting [2]).

Regarding `CCC(CC#N)n1cc(C(N)=O)c(Nc2ccccc2)n1` (stereo not drawn) [Example 1-7, 1-[1-(cyanomethyl)propyl]-3-(phenylamino)-1H-pyrazole-4-carboxamide], the IC50 was 48 nM on JAK1 (setting [1]) and 546 nM at JAK2 (setting [2]).

Consider `C[C@@H](CC#N)n1cc(C(N)=O)c(Nc2ccccc2)n1` (single isomer, unassigned) [Example 17-1, 1-[(2S or 2R)-1-cyanopropan-2-yl]-3-(phenylamino)-1H-pyrazole-4-carboxamide], for which the IC50 on JAK1 (setting [3]) is 224 nM; at JAK2 (setting [4]), 1130 nM.

In the case of `N#CC[C@@H](C1CC1)n1cc(C(N)=O)c(Nc2ccnc(F)c2)n1` (single isomer, unassigned) [Example 17-5, 1-[(1R or 1S)-2-cyano-1-cyclopropylethyl]-3-[(2-fluoropyridin-4-yl)amino]-1H-pyrazole-4-carboxamide], the IC50 on JAK1 (setting [1]) came out at 16 nM; on JAK2 (setting [2]), 190 nM.

`Cc1nc(-c2ccc(Nc3nn(C(CC#N)C4CC4)cc3C(N)=O)cc2)no1` (stereo not drawn) [Example 4-26, 1-(2-cyano-1-cyclopropylethyl)-3-{[4-(5-methyl-1,2,4-oxadiazol-3-yl)phenyl]amino}-1H-pyrazole-4-carboxamide]: the IC50 was determined as 65 nM on JAK1 (setting [1]) and 277 nM at JAK2 (setting [2]).

For `N#CCCc1cccc(Nc2nn(C(CC#N)C3CC3)cc2C(N)=O)c1` (stereo not drawn) [Example 4-7, 1-(2-cyano-1-cyclopropylethyl)-3-{[3-(2-cyanoethyl)phenyl]amino}-1H-pyrazole-4-carboxamide], the IC50 at JAK1 (setting [1]) stood at 13 nM; on JAK2 (setting [2]), 73 nM.

Regarding `CN1Cc2cc(Nc3nn(C(CC#N)C4CC4)cc3C(N)=O)ccc2C1=O` (stereo not drawn) [Example 4-33, 1-(2-cyano-1-cyclopropylethyl)-3-[(2-methyl-1-oxo-2,3-dihydro-1H-isoindol-5-yl)amino]-1H-pyrazole-4-carboxamide], the IC50 was 1 nM at JAK1 (setting [1]) and 23 nM on JAK2 (setting [2]).

Turning to `N#CCC(C1CC1)n1cc(C(N)=O)c(Nc2ccc3c(c2)CN(CC(F)(F)F)C3=O)n1` (stereo not drawn) [Example 4-31, 1-(2-cyano-1-cyclopropylethyl)-3-{[1-oxo-2-(2,2,2-trifluoroethyl)-2,3-dihydro-1H-isoindol-5-yl]amino}-1H-pyrazole-4-carboxamide], the IC50 amounted to 2 nM on JAK1 (setting [1]) and 7 nM at JAK2 (setting [2]).

For the molecule `C[C@H](C#N)[C@H](C)n1cc(C(N)=O)c(Nc2ccccc2)n1` (mixture of isomers) [Example 1-22, 1-((2S, 3S and 2R, 2R)-3-cyclobutan-2-yl)-3-(phenylamino)-1H-pyrazole-4-carboxamide], the IC50 on JAK1 (setting [1]) was determined as 32 nM; at JAK2 (setting [2]) it was 198 nM.

Consider `CC[C@@H](CC#N)n1cc(C(N)=O)c(Nc2ccccc2)n1` (single isomer, unassigned) [Example 16-2, 1-[(1R or 1S)-1-(cyanomethyl)propyl]-3-(phenylamino)-1H-pyrazole-4-carboxamide], for which the IC50 at JAK1 (setting [3]) was found to be 136 nM; at JAK2 (setting [4]), 800 nM.

On to `N#CCC(C1CC1)n1cc(C(N)=O)c(Nc2ccc3c(c2)CCS3(=O)=O)n1` (stereo not drawn) [Example 5, 1-(2-Cyano-1-cyclopropylethyl)-3-[(1,1-dioxido-2,3-dihydro-1-benzothiophen-5-yl)amino]-1H-pyrazole-4-carboxamide], for which the IC50 at JAK1 (setting [1]) came out at 1 nM; on JAK2 (setting [2]), 15 nM.

For `CC(CC#N)n1cc(C(N)=O)c(Nc2ccc(S(C)(=O)=O)cc2)n1` (stereo not drawn) [Example 10, 1-(2-Cyano-1-methylethyl)-3-{[4-(methylsulfonyl)phenyl]amino}-1H-pyrazole-4-carboxamide], the concentration for half-maximal inhibition (IC50) on JAK1 (setting [1]) stood at 7 nM; at JAK2 (setting [2]) it was 45 nM.

Turning to `CN(C)S(=O)(=O)c1ccc(Nc2nn(C(CC#N)C3CC3)cc2C(N)=O)cc1` (stereo not drawn) [Example 6-4, 1-(2-cyano-1-cyclopropylethyl)-3-{[4-(dimethylsulfamoyl)phenyl]amino}-1H-pyrazole-4-carboxamide], the 50% inhibitory concentration (IC50) at JAK1 (setting [1]) stood at 1 nM; on JAK2 (setting [2]), 3 nM.

For the molecule `N#CCC(C1CC1)n1cc(C(N)=O)c(Nc2ccc3ccncc3c2)n1` (stereo not drawn) [Example 4-15, 1-(2-cyano-1-cyclopropylethyl)-3-(isoquinolin-7-ylamino)-1H-pyrazole-4-carboxamide], the IC50 was 9 nM on JAK1 (setting [1]) and 39 nM at JAK2 (setting [2]).

`N#CCCn1cc(C(N)=O)c(Nc2ccccc2)n1` [Example 1-4, 1-(2-cyanoethyl)-3-(phenylamino)-1H-pyrazole-4-carboxamide]: the IC50 on JAK1 (setting [1]) turned out to be 348 nM; on JAK2 (setting [2]), 1190 nM.

Consider `N#CCC(CC1CCOCC1)n1cc(C(N)=O)c(Nc2ccccc2)n1` (stereo not drawn) [Example 1-10, 1-[2-cyano-1-(tetrahydro-2H-pyran-4-ylmethyl)ethyl]-3-(phenylamino)-1H-pyrazole-4-carboxamide], for which the IC50 amounted to 289 nM on JAK1 (setting [1]) and 1480 nM on JAK2 (setting [2]).

With `CN(C)C(=O)c1ccc(Nc2nn(C(CC#N)C3CC3)cc2C(N)=O)cc1` (stereo not drawn) [Example 4-22, 1-(2-cyano-1-cyclopropylethyl)-3-{[4-(dimethylcarbamoyl)phenyl]amino}-1H-pyrazole-4-carboxamide], the IC50 on JAK1 (setting [1]) stood at 3 nM; at JAK2 (setting [2]), 16 nM.

Take `CC(C)(C)OC(=O)N1CCC(C(C)(CC#N)n2cc(C(N)=O)c(Nc3ccccc3)n2)CC1` (stereo not drawn) [Example 3-3, tert-butyl 4-{2-[4-carbamoyl-3-(phenylamino)-1H-pyrazol-1-yl]-1-cyanopropan-2-yl}piperidine-1-carboxylate]: the values for the IC50 at JAK1 (setting [1]) and at JAK2 (setting [2]) were 5 nM and 236 nM, respectively.

On to `CC(C)(C)OC(=O)N1CCC(C(CC#N)n2cc(C(N)=O)c(Nc3ccc(F)cc3)n2)C1` (stereo not drawn) [Example 1-3, tert-butyl 3-(1-{4-carbamoyl-3-[(4-fluorophenyl)amino]-1H-pyrazol-1-yl}-2-cyanoethyl)pyrrolidine-1-carboxylate], for which the values for the concentration for half-maximal inhibition (IC50) at JAK1 (setting [1]) and on JAK2 (setting [2]) were 267 nM and 1480 nM, respectively.

Regarding `CCC(CC#N)n1cc(C(N)=O)c(Nc2ccc(C(=O)N3CCS(=O)(=O)CC3)cc2)n1` (stereo not drawn) [Example 1-17, 1-[1-{cyanomethyl)propyl]-3-({4-[(1,1-dioxidothiomorpholin-4-yl)carbonyl]phenyl}amino)-1H-pyrazole-4-carboxamide], the IC50 at JAK1 (setting [1]) was 19 nM; on JAK2 (setting [2]), 74 nM.

Regarding `N#CCC(C1CC1)n1cc(C(N)=O)c(Nc2ccc(C#N)cc2)n1` (stereo not drawn) [Example 4-14, 1-(2-cyano-1-cyclopropylethyl)-3-[(4-cyanophenyl)amino]-1H-pyrazole-4-carboxamide], the IC50 on JAK1 (setting [1]) came out at 5 nM; at JAK2 (setting [2]), 33 nM.

Turning to `N#CCC(C1CC1)n1cc(C(N)=O)c(Nc2cccc(C#N)c2)n1` (stereo not drawn) [Example 4-16, 1-(2-cyano-1-cyclopropylethyl)-3-[(3-cyanophenyl)amino]-1H-pyrazole-4-carboxamide], the figures for the IC50 on JAK1 (setting [1]) and at JAK2 (setting [2]) were 19 nM and 64 nM, respectively.

For `CC(C)(C)OC(=O)N1CCC(C(CC#N)n2cc(C(N)=O)c(Nc3ccccc3)n2)CC1` (stereo not drawn) [Example 1-2, tert-butyl 4-{1-[4-carbamoyl-3-(phenylamino)-1H-pyrazol-1-yl]-2-cyanoethyl}piperidine-1-carboxylate], the 50% inhibitory concentration (IC50) at JAK1 (setting [1]) was 7 nM; at JAK2 (setting [2]) it was 228 nM.

For `N#CCC(C1CC1)n1cc(C(N)=O)c(Nc2ccnc(Cl)c2)n1` (stereo not drawn) [Example 4-27, 3-[(2-chloropyridin-4-yl)amino]-1-(2-cyano-1-cyclopropylethyl)-1H-pyrazole-4-carboxamide], the IC50 on JAK1 (setting [1]) was found to be 166 nM; on JAK2 (setting [2]) it was 290 nM.
